Assay results: patent US5037812A, “Tumor cell growth-inhibiting pharmaceutical compositions containing phosphino-hydrocarbon-gold, silver or copper complexes” (priority 1986, dated 1991)
Where “and” joins values, the source holds several entries; their conditions need not be identical. Equal values may be shown once. Read-outs that look alike come from different tables or passages of the source.

Columns and labels:
B16 melanoma cells = test: B16 melanoma cell assay, clonogenic capacity in vitro after two-hour exposure; assay type: cell-based; conditions: 2-hour exposure; read-out: IC50: concentration which inhibits cloning efficiency of B16 melanoma cells by 50%
Procedure: The B16 melanoma cell assay measures the ability of a compound to inhibit the clonogenic capacity of cells in vitro following a two-hour exposure to the compound.
B16 melanoma (highly metastatic subline, F10) are used and maintained as monolayer cultures in Minimal Essential Media (Grand Island Biological Col., Grand Island, N.Y.) supplemented with 10% calf serum, 1% antibiotics in a 5% CO2 humidified incubator at 37° C. Asynchronous populations of cells are harvested and replated to 5000 cells/plate in sterile 60 mm×15 mm petri plates. Plates are incubated overnight to allow attachment of the cells to the plate. Cells are treated with a Formula (I) or Formula (II) compound/under sterile conditions, allowed to react for 2 hours followed by aspiration of medium. Plates are washed one time with 5 ml of phosphate buffered saline (PBS), followed by the addition of 5 ml of fresh medium. Plates are incubated for 5 days at 37° C. in a CO2 incubator. Viability is measured by the ability of a cell to form a colony of greater than 50 cells. Colonies are fixed with 0.5% crystal violet in 95% ethanol. Plates are dried and counted with a Biotran III Automatic Count Totalizer (New Brunswick Scientific Co., Edison, N.J.). Mean and standard deviation of triplicate samples are determined for each drug concentration. The data are analyzed plotting the log of the survival fraction (number of colonies in drug treated plates/number of colonies in controls) versus the drug concentration.
^a Concentration which inhibits cloning efficiency of B16 melanoma
cells by 50% on a 2hour exposure

P388 leukemia = test: ip P388 leukemia mouse model; assay type: in vivo, mice (B6D2F1); conditions: for MTD (maximally tolerated dose): B6D2F female mice, ip qDX5; for ILS max (maximum increase in lifespan): mice bearing ip P388 leukemia, ip days 1-5 at MTD, slash-separated figures are separate experiments
Procedure: This tumor system is widely accepted as an antitumor agent screening tool because it is sensitive to virtually all of the clinically active antineoplastic agents; quantitative and reproducible; amenable for large-scale screening; and predictive for activity in other animal tumor models.
10^6 P388 leukemia cells are inoculated ip in B6D2F1 mice. Twenty-four hours later, if the tumor inoculum proves to be free of bacterial contamination (as determined by 24 hours incubation in thioglycollate broth), animals are randomized into groups of 6 and housed in shoebox cages. […] An equal volume of saline or water is added; if the drug comes out of solution an equal volume of Cremophor (polyethoxylated castor oil) is added and then saline or water, as to a concentration such that the desired dose is delivered in 0.5 ml. The final concentration of DMA, ethanol or Cremophor is 10 percent. Dilutions for lower doses are made with saline or water so that there is a decreasing proportion of organic solvents in the vehicle with decreasing dosage. […] Formulations are prepared immediately prior to injection. The Formula (I) and Formula (II) compounds are administered ip on Days 1 through 5 (i.e., treatment is initiated 24 hrs after tumor inoculation). Each experiment includes three groups of 6 animals as untreated controls and animals treated with a positive control, cisplatin, at two dose levels. Animals are weighed as a group on Days 1, 5 and 9 and average weight change (Δwt.) is used as a reflection of toxicity. Each experiment also includes an inoculum titration--groups of 8 mice inoculated ip with 10^5 to 10^0 P388 leukemia cells. The titration is used as a quality control check for the performance of the tumor model. Animals are monitored daily for mortality and experiments are terminated after 45 days. The endpoint is median survival time (MST) and increase in lifespan (ILS) which is the percentage of increase in MST relative to untreated controls.

[1] = tested on: M5076 reticulum cell sarcoma; test: ip M5076 reticulum cell sarcoma in mice; assay type: in vivo, mice (B6D2F female); conditions: for MTD (maximally tolerated dose): B6D2F female mice, ip qDX10; for ILS max (maximum increase in lifespan): mice bearing ip M5076, ip qDX10 at MTD, slash-separated figures are separate experiments
Procedure: Another tumor model used for evaluation of tumor growth inhibiting drugs is intraperitoneally implanted M5076 reticulum cell sarcoma in mice. […] Drugs are administered ip. Daily treatment is begun 24 hours after implantation and is continued for ten days. The treatment regimen for M5076 is more prolonged than for P388 because of the slower growth rate and longer control survival time of the M5076 tumor. Compounds of Formula (I) and Formula (II) were evaluated in this assay. An evaluation of several compounds of Formula (I) in the M5076 reticulum cell sarcoma assay at their maximally tolerated dose (MTD) is set forth in Table III. An ILS of ≥25% indicates activity in this tumor model.
^(b) maximally tolerated dose for B6D2F female mice on an ip qDX10
^(c) maximum increase in lifespan produced in mice bearing ip M5076

B16 melanoma = test: in vivo ip B16 melanoma assay; parameters: species or system mice (B6D2F1); conditions: ip qDX10; for MTD (maximally tolerated dose): B6D2F1 mice; for ILS (maximum increase in lifespan): mice bearing ip B16 melanoma, slash-separated figures are separate experiments
Procedure: Daily treatment is begun 24 hours after tumor implantation and is continued daily for ten (10) days. The route of drug administration is ip. The mice are monitored daily for survival for sixty (60) days. Antitumor activity is assessed by prolongation of median survival time. An ILS of ≥25% indicates activity in this tumor model.
^(b) maximally tolerated dose for B6D2F1 mice on an ip qDX10
^(c) maximum increase in lifespan produced in mice bearing ip B16

[2] = tested on: HT-29 human colon carcinoma cells; test: HT-29 human colon carcinoma cell killing in vitro; assay type: cell-based; conditions: 2-hour exposure
[3] = tested on: mammary adenocarcinoma 16/c; test: sc mammary adenocarcinoma 16/c tumor model; assay type: in vivo, mice (C3H); conditions: for Inhibition: Day 21
Procedure: In this experiment, the tumor was implanted sc in C3H mice, and the drug was administered ip or iv on an intermittent treatment schedule, i.e., once on days 1, 5, 9, 13 and 17. Tumors were measured 3 weeks after implantation, and activity was assessed by degree of tumor growth inhibition.
*N.P. = Proportion of mice without palpable tumors on Day 21

[4] = tested on: M5076 reticulum cell sarcoma; conditions: 2 mg/kg ip, qD × 10
Procedure: B6D2F female mice are inoculated sc in the flank with 0.5 ml of a 10% (w:v) brei of M5076 prepared from pooled sc tumors excised at about Day 21 from C57Bl/6 donors. Treatment is initiated one day after tumor implantation, and is continued daily for 10 days. Tumors are measured 21 days after tumor implantation activity is determined by the degree of tumor growth inhibition.

[5] = solubility in 9:1 water:ethanol (HPLC of filtrate)
Procedure: (§1) Such solubility was determined as follows: The compound in question was dissolved or suspended in absolute ethanol (250 mg solid per 1.0 ml ethanol). To the resulting solution or suspension, water (9.0 times the volume of ethanol) was added. This suspension was stirred vigorously for 15 hours, then filtered through a 0.45 μm poly(tetrafluoroethylene) (PTFE) filter. […] The HPLC system was as follows:
(§2) Column PLRP-S, 5μm, obtained from Polymer Laboratories, Inc.
(§3) Mobile Phase 9:1 acetonitrile:0.1% tetra-n-butylammonium hydrogen sulfate (50° C., 1.0 ml-min-^-1)
Detection Ultraviolet (250 nm)

[6] = 15 h
Procedure: as §1, §2, §3
Detection Ultraviolet (250 nm)

[7] = Struck et al., J. Med. Chem., 9, 414-416 (1966); cited from earlier work
[8] = tested on: mammary adenocarcinoma 16/c; conditions: positive control, general statement; cited from earlier work
[9] = tested on: M5076 reticulum cell sarcoma; conditions: positive control, general statement; cited from earlier work
[10] = Experiment 1, ip, q4D × 5, 8 mg/kg
[11] = Experiment 2, ip, q4D × 5, 6 mg/kg
[12] = Experiment 2, iv, q4D × 5, 12 mg/kg
[13] = Experiment 3, ip, q4D × 5, 8 mg/kg
[14] = Experiment 1, ip, q4D × 5, 6 mg/kg
[15] = Experiment 2, iv, q4D × 5, 6 mg/kg
[16] = Experiment 3, ip, q4D × 5, 6 mg/kg

Bis[cis-1,2-bis(diphenylphosphino)ethylene]Gold(I) Chloride [compound 3]
IC50 (B16 melanoma cells): 2 µM
MTD (maximally tolerated dose) (P388 leukemia): 2 mg/kg
ILS max (maximum increase in lifespan) (P388 leukemia): 92 ± 26%
MTD (maximally tolerated dose) [1]: 2.4 mg/kg
ILS max (maximum increase in lifespan) [1]: 69%
MTD (maximally tolerated dose) (B16 melanoma): 1.5 mg/kg
ILS (maximum increase in lifespan) (B16 melanoma): 35%

[Au+].[Cl-].c1ccc(P(CCP(c2ccccc2)c2ccccc2)c2ccccc2)cc1.c1ccc(P(CCP(c2ccccc2)c2ccccc2)c2ccccc2)cc1 [Compound No. 1, Bis[1,2-Bis(diphenylphosphino)ethane]Gold(I) Chloride]
IC50 (B16 melanoma cells): 4.5 µM
effectively killed HT-29 cells following exposure to concentrations [2]: < 10 µM
MTD (maximally tolerated dose) (P388 leukemia): 2 mg/kg
ILS max (maximum increase in lifespan) (P388 leukemia): 83 ± 24%
MTD (maximally tolerated dose) [1]: 2 mg/kg
ILS max (maximum increase in lifespan) [1]: 56% and 83% and 52% and 47% and 49%
MTD (maximally tolerated dose) (B16 melanoma): 2 mg/kg
ILS (maximum increase in lifespan) (B16 melanoma): 50% and 43% and 33% and 28% and 37%
Mean Tumor Volume on Day 21 [3, 10]: 96 ± 143 mm^3
N.P. (proportion of mice without palpable tumors on Day 21) [3, 10]: 4/7
Inhibition [3, 10]: 92%
Mean Tumor Volume on Day 21 [3, 11]: 430 ± 291 mm^3
N.P. (proportion of mice without palpable tumors on Day 21) [3, 11]: 0/8
Inhibition [3, 11]: 61%
Mean Tumor Volume on Day 21 [3, 12]: 181 ± 163 mm^3
N.P. (proportion of mice without palpable tumors on Day 21) [3, 12]: 2/8
Inhibition [3, 12]: 84%
Mean Tumor Volume on Day 21 [3, 13]: 0 mm^3
N.P. (proportion of mice without palpable tumors on Day 21) [3, 13]: 5/5
Inhibition [3, 13]: 100%
% Inhibition of tumor growth (Day 21) [4]: 91% and 48%
N.P. (proportion of mice without palpable tumor on Day 21) [4]: 2/7 and 1/7
solubility in 9:1 water:ethanol (in words) ([5]; 9:1 water:ethanol): true solution
Solubility in 9:1 Water:Ethanol ([5]; stirred 15 hours, 0.45 μm PTFE filter, HPLC): 170 µg/mL
solubility in water (in words) ([5]; water): forms a suspension in water

[Au+].[Cl-].c1ccc(P(CCCP(c2ccccc2)c2ccccc2)c2ccccc2)cc1.c1ccc(P(CCCP(c2ccccc2)c2ccccc2)c2ccccc2)cc1 [compound 4, Bis[1,3-Bis(diphenylphosphino)propane]Gold(I) Chloride]
IC50 (B16 melanoma cells): 0.6 µM
MTD (maximally tolerated dose) (P388 leukemia): 3 mg/kg
ILS max (maximum increase in lifespan) (P388 leukemia): 89 ± 28%
MTD (maximally tolerated dose) [1]: 2 mg/kg
ILS max (maximum increase in lifespan) [1]: 116%
MTD (maximally tolerated dose) (B16 melanoma): 2 mg/kg
ILS (maximum increase in lifespan) (B16 melanoma): 34% and 28% and 40%

O=C([O-])C(O)CO.[Au+].c1ccc(P(CCP(c2ccccc2)c2ccccc2)c2ccccc2)cc1.c1ccc(P(CCP(c2ccccc2)c2ccccc2)c2ccccc2)cc1 [compound 25, Bis[1,2-bis(diphenylphosphino)ethane]gold(I) DL-2,3-dihydroxypropanoate]
MTD (maximally tolerated dose) (P388 leukemia): 2 mg/kg
ILS max (maximum increase in lifespan) (P388 leukemia): 55% and 65%
MTD (maximally tolerated dose) (B16 melanoma): 0.75 mg/kg
ILS (maximum increase in lifespan) (B16 melanoma): 28%
Solubility in 9:1 Water:Ethanol [6]: 2200 µg/mL

Bis[1,2-bis(diphenylphosphino)ethane]Silver(I) Nitrate [compound 2]
IC50 (B16 melanoma cells): 4 µM
MTD (maximally tolerated dose) (P388 leukemia): 3 mg/kg
ILS max (maximum increase in lifespan) (P388 leukemia): 89% and 90%
MTD (maximally tolerated dose) [1]: 2 mg/kg
ILS max (maximum increase in lifespan) [1]: 48%

c1ccc(P(CCP(c2ccccc2)c2ccccc2)c2ccccc2)cc1 [1,2-bis(diphenyl-phosphino)ethane]
cytotoxic activity (in words) [7]: cytotoxic activity

Tris[1,2-bis(diphenylphosphino)ethane]Dicopper(I) Chloride
MTD (maximally tolerated dose) (P388 leukemia): 2 mg/kg
ILS max (maximum increase in lifespan) (P388 leukemia): 100% and 115%
MTD (maximally tolerated dose) [1]: 1.6 mg/kg
ILS max (maximum increase in lifespan) [1]: 60%
MTD (maximally tolerated dose) (B16 melanoma): 1 mg/kg
ILS (maximum increase in lifespan) (B16 melanoma): 54%

N.N.[Cl][Pt][Cl] [Cisplatin, reference compound]
Mean Tumor Volume on Day 21 [3, 14]: 30 ± 64 mm^3
N.P. (proportion of mice without palpable tumors on Day 21) [3, 14]: 6/8
Inhibition [3, 14]: 97%
Mean Tumor Volume on Day 21 [3, 11]: 0 mm^3
N.P. (proportion of mice without palpable tumors on Day 21) [3, 11]: 8/8
Inhibition [3, 11]: 100%
Mean Tumor Volume on Day 21 [3, 15]: 21 ± 61 mm^3
N.P. (proportion of mice without palpable tumors on Day 21) [3, 15]: 7/8
Inhibition [3, 15]: 98%
Mean Tumor Volume on Day 21 [3, 16]: 586 ± 266 mm^3
N.P. (proportion of mice without palpable tumors on Day 21) [3, 16]: 0/8
Inhibition [3, 16]: 37%
inhibition of the growth of mammary adenocarcinoma 16/c (in words) [8]: complete inhibition
tumor growth inhibition (in words) [9]: complete tumor growth inhibition
